Experimental data taken from US7807663B2, “Therapeutic agents for diabetes” (Ajinomoto Co., Inc., priority 2003, dated 2010).
In brackets after ≈: the same amount, converted by molar mass.

Test system: adipose cells of rats
Assay: Evaluation of the sugar transportation activity (2-[14C(U)]-deoxy-D-glucose incorporation)
Format: cell-based, Wistar rats
Details: concentration with reinforcing effect of 50% of that of insulin (100 nM) = 100%; rat adipose cells, 30 min pre-culture at 37° C., 5 min uptake
Protocol: 1. Preparation of Adipose Cells of Rats:
After the decapitation and venesection of 6 male Wistar rats (body weight: 150 to 200 g), an incision was made in the abdomen of each rat to extract 6 g in total of epididymal adipose tissues. The tissues were finely cut into 2 mm×2 mm pieces in 6 ml of KRH (Krebs-Ringer Hepes, composition: 130 mM of sodium chloride, 4.7 mM of potassium chloride, 1.2 mM of potassium dihydrogenphosphate, 1.2 mM of magnesium sulfate, 1 mM of calcium chloride and 25 mM of Hepes, pH=7.6) containing 5% of BSA (bovine serum albumin). 24 mg of collagenase (type I) was added thereto and the digestion treatment was conducted for about 40 minutes to obtain about 6 ml of isolated adipose cells. The collagenase was removed by the buffer exchange. 2% BSA/KRH solution was added to the residue for the re-suspension to obtain 45 ml of an adipose cell suspension.
2. Evaluation of the Sugar Transportation Activity:
The sugar transportation activity of the compound (I) of the present invention was evaluated with reference to a method described in a literature [Annual Review of Biochemistry, Vol. 55, p. 1059 (1986)]. In the test, 200 μL of the adipose cell suspension was poured in each polystyrene test tube, 100 μL of the solution of the test substance (by dilution of 10 mg/mL dimethyl sulfoxide solution with KRH) was added thereto, and the obtained mixture was shaken and then cultured at 37° C. for 30 minutes. The sugar transportation activity was evaluated by measuring the quantity of 2-[^14C(U)]-deoxy-D-glucose incorporated per a unit time. Namely, 2-[^14C(U)]-deoxy-D-glucose was added to the adipose cell suspension after the pre-culture (the final concentration: 0.5 μCi/sample). 5 minutes after, cytochalasin B (final concentration: 10 μM) was added to the mixture to terminate the sugar transportation. After forming a dinonyl phthalate layer, the obtained mixture was centrifuged to separate the adipose cells from the buffer. The quantity of 2-[^14C(U)]-deoxy-D-glucose contained in the adipose cell layer was determined with a liquid scintillation counter to determine the quantity of the incorporated sugar. In this evaluation system, when insulin (100 nM) having the effect of reinforcing the sugar transportation was used, the effect was about 7 times as high as that obtained in the insulin-free control group.
The results of the evaluation of the sugar transportation activity obtained by using 100 μg/mL of the compound (I) of the present invention are shown in Table 3. The sugar transportation activity in Table 3 was evaluated on the basis of the reinforcing effect of insulin (100 nM). The sugar transportation activity A in Table 3 was determined in terms of the concentration (EC50: μg/mL) of a test compound, having a reinforcing effect corresponding to 50% on the basis of the reinforcing effect of insulin (100 nM) having a reinforcing effect of 100%.
The symbols in Table 3 are as follows: • No: Compound No. in Tables 1 and 2, and • A: sugar transportation activity.

Molecule | A: sugar transportation activity (EC50) [mg/L] | EC50 [mg/L]
COCC(=O)N1[C@@H]2CCCC[C@H]2NC2=C(C(=O)NC2)[C@H]1c1ccccc1OC(F)(F)F [Compound 69] | 2 | 
CCC(=O)N1[C@@H]2CCCC[C@H]2NC2=C(C(=O)NC2)[C@H]1c1ccc(F)cc1OC [Compound 70] | 0.82 | 
CCOCC(=O)N1[C@@H]2CCCC[C@H]2NC2=C(C(=O)NC2)[C@H]1c1ccc(F)cc1OC [Compound 71] | 7.8 | 
COc1cc(F)ccc1[C@@H]1C2=C(CNC2=O)N[C@@H]2CCCC[C@H]2N1C(C)=O [Compound 72] | 8 | 
COc1cccc([C@@H]2C3=C(CNC3=O)N[C@@H]3CCCC[C@H]3N2C(C)=O)c1OC [Compound 77] | 12 | 
COc1ccc([C@@H]2C3=C(CNC3=O)N[C@@H]3CCCC[C@H]3N2C(C)=O)c(OC)c1 [Compound 78] | 10 | 
CCC(=O)N1[C@@H]2CCCC[C@H]2NC2=C(C(=O)NC2)[C@H]1c1ccccc1C [Compound 83] | 2 | 
CC(=O)OCC(=O)N1[C@@H]2CCCC[C@H]2NC2=C(C(=O)NC2)[C@H]1c1ccccc1C [Compound 85] | 8 | 
Cc1ccccc1[C@@H]1C2=C(CNC2=O)N[C@@H]2CCCC[C@H]2N1C(=O)CO [Compound 86] | 2.5 | 
CCCC(=O)N1[C@@H]2CCCC[C@H]2NC2=C(C(=O)NC2)[C@H]1c1ccccc1CC [Compound 93] | 5 | 
CCC(=O)N1[C@@H]2CCCC[C@H]2NC2=C(C(=O)NC2)[C@H]1c1ccccc1CC [Compound 94] | 2.2 | 
CCc1ccccc1[C@@H]1C2=C(CNC2=O)N[C@@H]2CCCC[C@H]2N1C(=O)COC [Compound 97] | 6 | 
CCc1ccccc1[C@@H]1C2=C(CNC2=O)N[C@@H]2CCCC[C@H]2N1C(=O)OC [Compound 99] | 4 | 
O=C1NCC2=C1[C@@H](c1ccccc1C1CC1)N(C(=O)CO)[C@@H]1CCCC[C@H]1N2 [Compound 104] | 0.8 | 
CCOCC(=O)N1[C@@H]2CCCC[C@H]2NC2=C(C(=O)NC2)[C@H]1c1cccc(Cl)c1C [Compound 108] | 5 | 
CCC(=O)N1[C@@H]2CCCC[C@H]2NC2=C(C(=O)NC2)[C@H]1c1ccccc1Br [Compound 110] | 1.5 | 
COC(=O)CC(=O)N1[C@@H]2CCCC[C@H]2NC2=C(C(=O)NC2)[C@H]1c1ccccc1Br [Compound 111] | 1.5 | 
CCOCC(=O)N1[C@@H]2CCCC[C@H]2NC2=C(C(=O)NC2)[C@H]1c1ccccc1Br [Compound 112] | 8.6 | 
COCC(=O)N1[C@@H]2CCCC[C@H]2NC2=C(C(=O)NC2)[C@H]1c1ccccc1Br [Compound 113] | 6 | 
CC(=O)N1[C@@H]2CCCC[C@H]2NC2=C(C(=O)NC2)[C@H]1c1ccccc1Br [Compound 114] | 6 | 
O=C1NCC2=C1[C@@H](c1ccccc1Cl)N(C(=O)CC(F)(F)F)[C@@H]1CCCC[C@H]1N2 [Compound 118] | 0.5 | 
COC(=O)N1[C@@H]2CCCC[C@H]2NC2=C(C(=O)NC2)[C@H]1c1ccccc1Cl [Compound 122] | 2.4 | 
CCOCC(=O)N1[C@@H]2CCCC[C@H]2NC2=C(C(=O)NC2)[C@H]1c1ccccc1F [Compound 126] | 2 | 
CC(=O)N1[C@@H]2CCCC[C@H]2NC2=C(C(=O)NC2)[C@H]1c1ccccc1N [Compound 136] | 12 | 
CC(=O)N1[C@@H]2CCCC[C@H]2NC2=C(C(=O)NC2)[C@H]1c1ccc(Br)cc1 [Compound 139] | 17 | 
CCOCC(=O)N1[C@@H]2CCCC[C@H]2NC2=C(C(=O)NC2)[C@H]1c1ccc(Cl)cc1 [Compound 141] | 6 | 

The next lines start with the values.

A: sugar transportation activity (EC50) [mg/L] | EC50 [mg/L] | Molecule
6 |  | COc1cc(Cl)ccc1[C@@H]1C2=C(CNC2=O)N[C@@H]2CCCC[C@H]2N1C(C)=O [Compound 73]
10 |  | COc1ccc(F)cc1[C@@H]1C2=C(CNC2=O)N[C@@H]2CCCC[C@H]2N1C(C)=O [Compound 76]
6 |  | Cc1ccccc1[C@@H]1C2=C(CNC2=O)N[C@@H]2CCCC[C@H]2N1C(=O)C(F)(F)F [Compound 82]
4 |  | CCOCC(=O)N1[C@@H]2CCCC[C@H]2NC2=C(C(=O)NC2)[C@H]1c1ccccc1C [Compound 84]
6 |  | COCC(=O)N1[C@@H]2CCCC[C@H]2NC2=C(C(=O)NC2)[C@H]1c1ccccc1C [Compound 87]
7 |  | CCOC(=O)N1[C@@H]2CCCC[C@H]2NC2=C(C(=O)NC2)[C@H]1c1ccccc1C [Compound 89]
2 |  | COC(=O)N1[C@@H]2CCCC[C@H]2NC2=C(C(=O)NC2)[C@H]1c1ccccc1C [Compound 90]
1.5 |  | Cc1ccccc1[C@@H]1C2=C(CNC2=O)N(C)[C@@H]2CCCC[C@H]2N1C(=O)CO [Compound 92]
2 |  | CCc1ccccc1[C@@H]1C2=C(CNC2=O)N[C@@H]2CCCC[C@H]2N1C(=O)CC(=O)OC [Compound 95]
5 |  | CCc1ccccc1[C@@H]1C2=C(CNC2=O)N(CC)[C@@H]2CCCC[C@H]2N1C(C)=O [Compound 102]
6 |  | CC(=O)N1[C@@H]2CCCC[C@H]2NC2=C(C(=O)NC2)[C@H]1c1cccc(F)c1C [Compound 107]
0.5 |  | O=C1NCC2=C1[C@@H](c1ccccc1Br)N(C(=O)CC(F)(F)F)[C@@H]1CCCC[C@H]1N2 [Compound 109]
3 |  | CCC(=O)N1[C@@H]2CCCC[C@H]2NC2=C(C(=O)NC2)[C@H]1c1ccccc1Cl [Compound 116]
4 |  | CCCC(=O)N1[C@@H]2CCCC[C@H]2NC2=C(C(=O)NC2)[C@H]1c1ccccc1Cl [Compound 117]
5 |  | COCC(=O)N1[C@@H]2CCCC[C@H]2NC2=C(C(=O)NC2)[C@H]1c1ccccc1Cl [Compound 119]
10.7 |  | CCOCC(=O)N1[C@@H]2CCCC[C@H]2NC2=C(C(=O)NC2)[C@H]1c1ccccc1Cl [Compound 120]
2 |  | COC(=O)CC(=O)N1[C@@H]2CCCC[C@H]2NC2=C(C(=O)NC2)[C@H]1c1ccccc1Cl [Compound 121]
2 |  | CCC(=O)N1[C@@H]2CCCC[C@H]2NC2=C(C(=O)NC2)[C@H]1c1ccccc1F [Compound 124]
2 |  | O=C1NCC2=C1[C@@H](c1ccccc1F)N(C(=O)C1CC1)[C@@H]1CCCC[C@H]1N2 [Compound 125]
2 |  | COC(=O)N1[C@@H]2CCCC[C@H]2NC2=C(C(=O)NC2)[C@H]1c1ccccc1F [Compound 127]
2 |  | COC(=O)N1[C@@H]2CCCC[C@H]2NC2=C(C(=O)NC2)[C@H]1c1ccccc1 [Compound 133]
4.4 |  | COc1ccc([C@@H]2C3=C(CNC3=O)N[C@@H]3CCCC[C@H]3N2C(C)=O)cc1 [Compound 138]
 | 19 (≈ 46.3 µM) | CC(=O)N1[C@@H]2CCCC[C@H]2NC2=C(C(=O)NC2)[C@H]1c1ccc(Br)s1 [Compound 144]

Same assay, conditions: insulin 100 nM; rat adipose cells

Molecule | effect of reinforcing the sugar transportation relative to insulin-free control group
insulin [reference compound] | about 7 times
